Experimental data from patent US11279712B2, “Macrocyclic compounds that inhibit MCL-1 protein” (AMGEN INC., priority 2017, dated 2022).
Where two headings read alike, the source gives them in different places.

Experiments:
[1] = target: Mcl-1/Bim interaction (recombinant human Mcl-1 residues 171-327) (Homo sapiens (Human), UniProt Q07820); assay: Cell Free Mcl-1:Bim Affinity Assay (Mcl-1 HTRF); format: binding; conditions: TR-FRET, 0.1 nM Mcl-1(171-327), 0.05 nM biotin-Bim(51-76)
Procedure: Cell Free Mcl-1:Bim Affinity Assay (Mcl-1 HTRF)
The inhibition of the Mcl-1/Bim interaction was measured using a time-resolved fluorescence resonance energy transfer (TR-FRET) assay. The recombinant human Mcl-1 (C-terminally 6×His tagged Mcl-1 containing residues 171-327) was generated at Amgen Inc (Thousand Oaks, Calif.). A biotinylated peptide derived from human Bim (residues 51-76) was purchased from CPC Scientific (San Jose, Calif.). The TR-FRET assay was conducted in a 384-well white OptiPlate™ (PerkinElmer, Waltham, Mass.) in a total volume of 40 μL. The reaction mixture contained 0.1 nM Mcl-1(171-327), 0.05 nM biotin-Bim(51-76), 0.05 nM LANCES Eu-W1024 Anti-6×His (PerkinElmer), 0.072 nM Streptavidin-Xlent (Cisbio, Bedford, Mass.), and serially diluted test compounds in the binding buffer of 20 mM Hepes, pH 7.5, 150 mM NaCl, 0.016 mM Brij®35, and 1 mM dithiothreitol. Test compounds were pre-incubated with Mcl-1(171-327) and biotin-Bim (51-76) for 60 min before addition of the detection mixture (LANCE® Eu-W1024 Anti-6×His and Streptavidin-Xlent). The reaction plates were further incubated overnight and then were read on an Envision® multimode reader (PerkinElmer). Fluorescence signals were measured at 620 nm (40-nm bandwidth) and 665 nm (7.5-nm bandwidth) with a 60 μs delay after excitation at 320 nm (75-nm bandwidth). The signal ratio at 665/620 nm corresponded to the Mcl-1/Bim interaction and was used in all data analyses. The IC50 values of test compounds were determined from duplicate data by analyzing competition curves using a four-parameter sigmoidal model in GraphPad Prism (GraphPad Software, San Diego, Calif.) or in Genedata Screener® (Genedata, Basel, Switzerland).

[2] = tested on: OPM-2 human multiple myeloma cell line; assay: Cell Viability Assay (OPM-2 10 FBS); format: cell-based; conditions: OPM-2 cells, CellTiter-Glo, read-out: OPM-2 10% FBS IC50 IP
Procedure: Cell Viability Assay (OPM-2 10 FBS)
The human multiple myeloma cell line, OPM-2, was cultured in complete growth medium containing RPMI 1640 and 10% fetal bovine serum (FBS). Cells were seeded into 384-well plates at 3000 cells/well density in complete growth medium containing 10% FBS, and incubated for 16 h with serially diluted test compounds in a 37° C. incubator with 5% CO2. Cell viability was tested using CellTiter-Glo® assay (Promega, Madison, Wis.) according to the manufacturer recommendations. Luminescence was determined using an EnVision® Multilabel plate reader 25 min after the addition of detection reagent. IC50 values were then calculated with Xlfit using a logistical 4-parameter fit model in GraphPad Prism (GraphPad Software, San Diego, Calif.) or in Genedata Screener® (Genedata, Basel, Switzerland).

Chain of Mcl-1/Bim interaction (recombinant human Mcl-1 residues 171-327) (Q07820 171-327): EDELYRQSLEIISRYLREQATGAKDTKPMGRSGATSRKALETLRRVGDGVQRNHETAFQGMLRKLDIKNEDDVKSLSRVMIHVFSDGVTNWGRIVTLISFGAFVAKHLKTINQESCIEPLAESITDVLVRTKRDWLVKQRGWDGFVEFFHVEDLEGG

Compound | IC50 [1] [nM] | IC50 ([2]; 16 h) [nM] | IC50 ([2]; Homo sapiens, OPM-2, 16 h) [nM]
C[C@@H]1[C@@H](C)CCC[C@H]([C@@H](C)O)[C@@H]2CC[C@H]2CN2C[C@@]3(CCCc4cc(Cl)ccc43)COc3ccc(cc32)C(=O)NS1(=O)=O (single isomer, unassigned) [Example 74] | 3.67 | 2040 | 
CC[C@@H](O)[C@@H]1/C=C/C[C@H](C)[C@@H](C)S(=O)(=O)NC(=O)c2ccc3c(c2)N(C[C@@H]2CC[C@H]21)C[C@@]1(CCCc2cc(Cl)ccc21)CO3 (single isomer, unassigned) [Example 75] | 0.808 | 2440 | 
C[C@@H]1[C@@H](C)CCC[C@H](C(=O)O)[C@@H]2CC[C@H]2CN2C[C@@]3(CCCc4cc(Cl)ccc43)COc3ccc(cc32)C(=O)NS1(=O)=O (single isomer, unassigned) [Example 77] | 0.442 | 20700 | 
C[C@@H]1[C@@H](C)CCC[C@H]([C@H](O)c2ccccc2)[C@@H]2CC[C@H]2CN2C[C@@]3(CCCc4cc(Cl)ccc43)COc3ccc(cc32)C(=O)NS1(=O)=O (single isomer, unassigned) [Example 78] | 2.36 | 28300 | 
C[C@H]([C@H]1CCC[C@H](C)[C@@H](C)S(=O)(=O)NC(=O)c2ccc3c(c2)N(C[C@@H]2CC[C@H]21)C[C@@]1(CCCc2cc(Cl)ccc21)CO3)N1CCOCC1 (single isomer, unassigned) [Example 79] | 1.59 | 3000 | 
COC[C@H]1CCC[C@H](C)[C@@H](C)S(=O)(=O)NC(=O)c2ccc3c(c2)N(C[C@@H]2CC[C@@H]12)C[C@@]1(CCCc2cc(Cl)ccc21)CO3 (single isomer, unassigned) [Example 80] | 1.6 |  | 3510
C[C@H]1CCC[C@H](CO)[C@@H]2CC[C@H]2CN2C[C@@]3(CCCc4cc(Cl)ccc43)COc3ccc(cc32)C(=O)NS(=O)(=O)C1 (single isomer, unassigned) [Example 82] | 0.772 | 3650 | 
C[C@@H]1[C@@H](C)CCC[C@H]([C@H](O)C2CCN(C)CC2)[C@@H]2CC[C@H]2CN2C[C@@]3(CCCc4cc(Cl)ccc43)COc3ccc(cc32)C(=O)NS1(=O)=O (single isomer, unassigned) [Example 83] | 0.552 | 4230 | 
C[C@@H]1CS(=O)(=O)NC(=O)c2ccc3c(c2)N(C[C@@H]2CC[C@H]2[C@@H](CO)CC[C@@H]1C)C[C@@]1(CCCc2cc(Cl)ccc21)CO3 (single isomer, unassigned) [Example 84] | 3.43 | 5840 | 
CC[C@@H]1CCCC[C@H](CO)[C@@H]2CC[C@H]2CN2C[C@@]3(CCCc4cc(Cl)ccc43)COc3ccc(cc32)C(=O)NS1(=O)=O (single isomer, unassigned) [Example 85] | 0.676 | 7130 | 
C[C@@H]1[C@@H](C)CCC[C@@H]([C@H](O)C(F)(F)F)[C@@H]2CC[C@H]2CN2C[C@@]3(CCCc4cc(Cl)ccc43)COc3ccc(cc32)C(=O)NS1(=O)=O (single isomer, unassigned) [Example 86] | 27.5 | 9230 | 
C[C@@H]1[C@@H](C)CCC[C@@H]([C@@H](O)C(F)(F)F)[C@@H]2CC[C@H]2CN2C[C@@]3(CCCc4cc(Cl)ccc43)COc3ccc(cc32)C(=O)NS1(=O)=O (single isomer, unassigned) [Example 87] | 13.3 | 9890 | 
C[C@@H]1[C@@H](C)CCC[C@@H]([C@@H](O)c2ccccc2)[C@@H]2CC[C@H]2CN2C[C@@]3(CCCc4cc(Cl)ccc43)COc3ccc(cc32)C(=O)NS1(=O)=O (single isomer, unassigned) [Example 88] | 11.4 | > 33300 | 
C[C@@H]1[C@@H](C)CCC[C@H](C)[C@@H]2CC[C@H]2CN2C[C@@]3(CCCc4cc(Cl)ccc43)COc3ccc(cc32)C(=O)NS1(=O)=O (single isomer, unassigned) [Example 89] | 14.2 | > 33300 | 
COCCN1CCN(C[C@H]2CCC[C@H](C)[C@@H](C)S(=O)(=O)NC(=O)c3ccc4c(c3)N(C[C@@H]3CC[C@@H]23)C[C@@]2(CCCc3cc(Cl)ccc32)CO4)CC1=O (stereo in doubt) [Example 3] | 0.257 |  | 166
C[C@@H]1[C@@H](C)CCC[C@H](CN2CCN3CCOC[C@H]3C2)[C@@H]2CC[C@H]2CN2C[C@@]3(CCCc4cc(Cl)ccc43)COc3ccc(cc32)C(=O)NS1(=O)=O (stereo in doubt) [Example 14] | 0.291 |  | 268
C[C@@H]1[C@@H](C)CCC[C@H](CN2CC(N(C)C)C2)[C@@H]2CC[C@H]2CN2C[C@@]3(CCCc4cc(Cl)ccc43)COc3ccc(cc32)C(=O)NS1(=O)=O (stereo in doubt) [Example 18] | 0.84 | 289 | 
C[C@@H]1[C@@H](C)CCC[C@H](CN2CCN3CCN(S(C)(=O)=O)C[C@@H]3C2)[C@@H]2CC[C@H]2CN2C[C@@]3(CCCc4cc(Cl)ccc43)COc3ccc(cc32)C(=O)NS1(=O)=O (stereo in doubt) [Example 20] | 1.16 |  | 304
CC(=O)N1CCN2CCN(C[C@H]3CCC[C@H](C)[C@@H](C)S(=O)(=O)NC(=O)c4ccc5c(c4)N(C[C@@H]4CC[C@@H]34)C[C@@]3(CCCc4cc(Cl)ccc43)CO5)C[C@H]2C1 (stereo in doubt) [Example 25] | 0.252 | 329 | 
C[C@@H]1[C@@H](C)CCC[C@H](CN2CC(C)(N(C)C)C2)[C@@H]2CC[C@H]2CN2C[C@@]3(CCCc4cc(Cl)ccc43)COc3ccc(cc32)C(=O)NS1(=O)=O (stereo in doubt) [Example 27] | 0.83 | 356 | 
C[C@@H]1[C@@H](C)CCC[C@H](CC(=O)N(C)C)[C@@H]2CC[C@H]2CN2C[C@@]3(CCCc4cc(Cl)ccc43)COc3ccc(cc32)C(=O)NS1(=O)=O (stereo in doubt) [Example 28] | 0.287 |  | 364
C[C@@H]1[C@@H](C)CCC[C@H](CN2CCN3CCN(S(C)(=O)=O)C[C@@H]3C2)[C@@H]2CC[C@H]2CN2C[C@@]3(CCCc4cc(Cl)ccc43)COc3ccc(cc32)C(=O)NS1(=O)=O (stereo in doubt) [Example 30] | 0.516 | 370 | 
C[C@@H]1[C@@H](C)CCC[C@H](CN2CCN3CCOC[C@@H]3C2)[C@@H]2CC[C@H]2CN2C[C@@]3(CCCc4cc(Cl)ccc43)COc3ccc(cc32)C(=O)NS1(=O)=O (stereo in doubt) [Example 32] | 0.493 | 380 | 
CC(=O)N1CCN(C[C@H]2CCC[C@H](C)[C@@H](C)S(=O)(=O)NC(=O)c3ccc4c(c3)N(C[C@@H]3CC[C@@H]23)C[C@@]2(CCCc3cc(Cl)ccc32)CO4)CC1 (stereo in doubt) [Example 33] | 0.172 | 411 | 
COCCN1CCN(C[C@H]2CCC[C@H](C)[C@@H](C)S(=O)(=O)NC(=O)c3ccc4c(c3)N(C[C@@H]3CC[C@@H]23)C[C@@]2(CCCc3cc(Cl)ccc32)CO4)CCC1=O (stereo in doubt) [Example 36] | 0.265 |  | 443
COCCN1CCCN(C[C@H]2CCC[C@H](C)[C@@H](C)S(=O)(=O)NC(=O)c3ccc4c(c3)N(C[C@@H]3CC[C@@H]23)C[C@@]2(CCCc3cc(Cl)ccc32)CO4)CC1=O (stereo in doubt) [Example 42] | 0.408 |  | 593
C[C@@H]1[C@@H](C)CCC[C@H](CN2CCOCC2)[C@@H]2CC[C@H]2CN2C[C@@]3(CCCc4cc(Cl)ccc43)COc3ccc(cc32)C(=O)NS1(=O)=O (stereo in doubt) [Example 55] | 0.843 | 1020 | 
C[C@@H]1[C@@H](C)C/C=C/[C@H](CN2CCOCC2)[C@@H]2CC[C@H]2CN2C[C@@]3(CCCc4cc(Cl)ccc43)COc3ccc(cc32)C(=O)NS1(=O)=O (stereo in doubt) [Example 62] | 0.388 |  | 1440
C[C@@H]1[C@@H](C)CCC[C@H](CN2CCN3CCNC[C@@H]3C2)[C@@H]2CC[C@H]2CN2C[C@@]3(CCCc4cc(Cl)ccc43)COc3ccc(cc32)C(=O)NS1(=O)=O (stereo in doubt) [Example 81] | 0.831 |  | 3560
